Data reported in PubChem BioAssay (NCI).
Values joined by “and” are separate entries in the source; they are usually repeats but may differ in a detail not shown here. Equal values may be shown once.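 48-hour exposure; five concentrations; linearly interpolated endpoints. The concentration for 50% growth inhibition is given as GI50. At the TGI there is no net growth.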

How the values were obtained:
Assay in all cases: DTP human tumour cell line panel, 48 h
A549 NSCLC = system: A549 NSCLC
CAKI-1 renal = system: CAKI-1 renal
EKVX NSCLC = system: EKVX NSCLC
HCT-116 colon = system: HCT-116 colon
KM12 colon = system: KM12 colon
MDA-MB-435 = system: MDA-MB-435
NCI/ADR-RES ovarian = system: NCI/ADR-RES ovarian
OVCAR-4 ovarian = system: OVCAR-4 ovarian
SR leukemia = system: SR leukemia
U251 CNS = system: U251 CNS

| Compound | GI50 (A549 NSCLC) | TGI (A549 NSCLC) | GI50 (CAKI-1 renal) | TGI (CAKI-1 renal) | GI50 (EKVX NSCLC) | TGI (EKVX NSCLC) | GI50 (HCT-116 colon) | TGI (HCT-116 colon) | GI50 (KM12 colon) | TGI (KM12 colon) | GI50 (MDA-MB-435) | TGI (MDA-MB-435) | GI50 (NCI/ADR-RES ovarian) | TGI (NCI/ADR-RES ovarian) | GI50 (OVCAR-4 ovarian) | TGI (OVCAR-4 ovarian) | GI50 (SR leukemia) | TGI (SR leukemia) | GI50 (U251 CNS) | TGI (U251 CNS) |
| --- | --- | --- | --- | --- | --- | --- | --- | --- | --- | --- | --- | --- | --- | --- | --- | --- | --- | --- | --- | --- |
| COc1cc(/C=C/C(=O)c2c(C)nc3ccccc3c2C)ccc1OCCCN1CCN(C(=O)c2ccco2)CC1 | 11.3 µM | 27.3 µM | 1.86 µM | 9.03 µM | 7.76 µM | 42.6 µM | 3.5 µM | 15.7 µM | 11.4 µM | 24.3 µM | 4.55 µM | 19.8 µM | 5.55 µM | 45.2 µM | 8.85 µM | > 100 µM | 2.22 µM | 7.47 µM | 7.95 µM | 20.6 µM |
| CSc1ccc(C(=O)/C=C/c2ccccc2Cl)cc1 | 15.1 µM | 30.5 µM | 15.4 µM | 30.7 µM | 19.7 µM | 37 µM | 2.08 µM | 3.96 µM | 16.6 µM | 42 µM | 12.4 µM | 30.2 µM | 18.9 µM | 40.1 µM | 25.7 µM | 66 µM | 2.23 µM | 22.4 µM | 4.75 µM | 17.2 µM |
| CCCCCCCC(=O)[O][Hg][CH2]C1COC([CH2][Hg][O]C(=O)CCCCCCC)CO1 (stereo unspecified) | 20.3 µM | 47.2 µM | – | – | 30.8 µM | 66.4 µM | 2.29 µM | 8.26 µM | 16.3 µM | 30.6 µM | 12.9 µM | 25.8 µM | 20.2 µM | 49.6 µM | – | – | – | – | 15.2 µM | 28.6 µM |
| Cc1ccc(OCC2OC(n3cnc4c(Br)nc(Br)nc43)CC2Oc2ccc(C)cc2)cc1 (stereo unspecified) | – | 30 µM and > 41.9 µM | 1.2 µM | 2.26 µM and 4.03 µM | 1.52 µM | 3.25 µM and 4.15 µM | 5.29 µM | 14.5 µM and 3.6 µM | 2.46 µM | 8.76 µM and 9.56 µM | 6.85 µM | 19.4 µM and 19.5 µM | 20.4 µM | 53.5 µM and 29.5 µM | 1.56 µM | 4.84 µM and 7.55 µM | – | 4.67 µM | 1.61 µM | 3.99 µM and 4.82 µM |
| Nc1ncnc2c1ccn2[C@@H]1O[C@H]([C@H](O)c2ccc(Cl)c(F)c2)[C@@H](O)[C@H]1O | > 100 µM | > 100 µM | > 100 µM | > 100 µM | > 100 µM | > 100 µM | > 100 µM | > 100 µM | > 100 µM | > 100 µM | > 100 µM | > 100 µM | > 100 µM | > 100 µM | > 100 µM | > 100 µM | > 100 µM | > 100 µM | > 100 µM | > 100 µM |
| O=[N+]([O-])c1cc2c([N+](=O)[O-])cccc2o1 | – | > 100 µM | – | 5.77 µM | – | 6.25 µM | – | > 100 µM | – | 34.5 µM | – | 53.8 µM | – | 32.6 µM | – | 3.63 µM | – | – | – | > 100 µM |
| CN(C)c1ccc2nc(CC(O)(C(F)(F)F)C(F)(F)F)ccc2c1 | – | > 10 µM | – | > 10 µM | – | > 10 µM | – | > 10 µM | – | > 10 µM | – | > 10 µM | – | > 10 µM | – | > 10 µM | – | – | – | > 10 µM |
| Cc1nccc2c3ccc(OCc4cn(-c5ccc(Cl)cc5)nn4)cc3n(CC(C)C)c12 | 2.29 µM | 13 µM | – | – | 2.14 µM | 32.6 µM | 1.3 µM | 5.65 µM | 2.69 µM | 16.8 µM | 3.38 µM | > 33.3 µM | 1.73 µM | 30.8 µM | 2.24 µM | 15.1 µM | 1.03 µM | 5.53 µM | 2.62 µM | 13.3 µM |
| CC1(C)N=C(N)N=C(N)N1c1cccc(Br)c1 | 0.469 µM | > 100 µM | 41.9 µM | > 100 µM | 17.4 µM | > 100 µM | 0.069 µM | > 100 µM | 0.769 µM | > 100 µM | 0.0612 µM | > 100 µM | > 63.5 µM | > 100 µM | 8.66 µM | > 100 µM | 0.703 µM | > 100 µM | 0.321 µM | > 100 µM |
| Cn1c2ccccc2c2c(=O)n(CCCC(=O)OC(=NC3CCCCC3)NC3CCCCC3)c3c(-c4ccccc4)nnn3c21 | > 100 µM | > 100 µM | > 100 µM | > 100 µM | > 100 µM | > 100 µM | 91.8 µM | > 100 µM | > 100 µM | > 100 µM | > 100 µM | > 100 µM | 94.9 µM | > 100 µM | 38 µM | > 100 µM | – | – | > 100 µM | > 100 µM |
| Fc1ccc(Nc2nc3ccccc3c3occc23)cc1 | 8.99 µM | 23.2 µM | 1.89 µM | 5.24 µM | 15.2 µM | 29.5 µM | 0.13 µM | 2.41 µM | 1.9 µM | 6.23 µM | 4.02 µM | 15.6 µM | 2.48 µM | 13 µM | 6 µM | 25.5 µM | 2.24 µM | 16.4 µM | 12.3 µM | 24.7 µM |
| C/C(=N/N=C(N)N)c1ccc(NC(=O)Nc2ccc(/C(C)=N/N=C(N)N)cc2)cc1 | 19.4 µM | 54.8 µM | 22.4 µM | > 100 µM | 19.2 µM | 49 µM | 28 µM | > 100 µM | 9.78 µM | > 77.7 µM | 16 µM | > 83.8 µM | 18 µM | > 100 µM | 17.1 µM | 61.1 µM | 15.2 µM | 30.1 µM | 7.94 µM | 24.3 µM |
| CCCCCC[C@H](C)NC(=O)c1ccc(Nc2nc3ccccc3c3occc23)cc1 | 4.35 µM | > 100 µM | 3.97 µM | 50.5 µM | 2.2 µM | 5.42 µM | 2.14 µM | 6.43 µM | 4.27 µM | 20.5 µM | 2.9 µM | 15.3 µM | 2.48 µM | 6.99 µM | – | – | 6.65 µM | 55.5 µM | 19 µM | > 100 µM |
| Nc1c(F)cc(-c2nc3cc(F)ccc3[se]2)cc1Br | 0.137 µM | > 100 µM | – | – | 0.209 µM | > 100 µM | 0.025 µM | 13 µM | 0.15 µM | > 100 µM | 14.6 µM | > 100 µM | 38.9 µM | > 100 µM | 0.15 µM | > 100 µM | < 0.0162 µM | > 100 µM | 12 µM | 70.5 µM |
| CN1CCN(Cc2cc(NC(=O)c3cccc(C#Cc4cccc5[nH]nc(N)c45)c3)cc(C(F)(F)F)c2)CC1 | 1.83 µM | 3.28 µM | 1.68 µM | 3.06 µM | 1.75 µM | 3.26 µM | – | – | 1.32 µM | 2.67 µM | 1.48 µM | 2.9 µM | 2.02 µM | 4.2 µM | 1.59 µM | 3.97 µM | – | – | 1.81 µM | 3.22 µM |
| CCN(Cc1ccc(F)cc1)c1ccc(CO)c(OC)c1 | 40.1 µM | > 100 µM | 4.69 µM | 33.3 µM | – | – | 10 µM | 28.2 µM | 36.5 µM | > 100 µM | 25.7 µM | > 100 µM | 17.6 µM | 55.5 µM | 7.02 µM | 20.6 µM | 19.5 µM | 55.7 µM | 22.1 µM | 99.3 µM |
| CN(C)c1ccc(N=C2C=CC(=O)c3ccccc32)cc1 | 1.82 µM | 3.89 µM | 3.58 µM | 16.3 µM | – | – | 2.88 µM | 13.3 µM | 2.69 µM | 10.2 µM | 1.85 µM | 3.58 µM | 3.95 µM | 72.6 µM | 2.02 µM | 10.4 µM | 2.86 µM | 14.1 µM | 2.47 µM | 7.9 µM |
| CCC[CH2][Pb]([Cl])([CH2]CCC)[CH2]CCC | 0.0264 µM | 0.0936 µM | 0.0673 µM | 0.199 µM | 0.066 µM | 0.218 µM | 0.0176 µM | 0.0345 µM | 0.0326 µM | 0.081 µM | 0.0178 µM | 0.0366 µM | – | – | 0.0472 µM | 0.184 µM | 0.0671 µM | – | 0.0161 µM | 0.0304 µM |
| COc1cc(/C=C2\C[C@H]3[C@@H]4CC=C5C[C@@H](OC(C)=O)CC[C@]5(C)[C@H]4CC[C@]3(C)[C@H]2OC(C)=O)ccc1OCCN1CCCC1 | 10.9 µM | 21.6 µM | 12 µM | 25.6 µM | – | – | 10.5 µM | 30.7 µM | 8.81 µM | 17.7 µM | 13.3 µM | 27.2 µM | 10.2 µM | 20.6 µM | – | – | – | – | – | – |
| COc1cccc2c1C(=O)c1c(O)c3c(c(O)c1C2=O)CC(O)(C(=O)CO)CC3OC1CC(N)C(O)C(C)O1 (stereo unspecified) | 4.17 mg/L and 22.6 mg/L | 75 mg/L and > 150 mg/L | 16.3 mg/L and 64 mg/L | 75 mg/L and > 150 mg/L | 75 mg/L | 75 mg/L | 7.26 mg/L and 17.4 mg/L | 75 mg/L and > 150 mg/L | 16.9 mg/L and 54.4 mg/L | 75 mg/L and > 150 mg/L | 8.56 mg/L and 67 mg/L | 75 mg/L and > 150 mg/L | – | – | 46.6 mg/L and > 150 mg/L | 75 mg/L and > 150 mg/L | 0.465 mg/L and 1.18 mg/L | 7.2 mg/L and 6.76 mg/L | 2.22 mg/L and 6.15 mg/L | 75 mg/L and 44 mg/L |
